# Columns and labels:
# Staphylococcus aureus [1] = experiment: Antibacterial activity against vancomycin-intermediate Staphylococcus aureus ATCC 700699 assessed as inhibition of visible growth by broth microdilution method; format: functional
# Staphylococcus aureus [2] = experiment: Antibacterial activity against vancomycin-intermediate Staphylococcus aureus LIM 3 assessed as inhibition of visible growth by broth microdilution method; format: functional
# Staphylococcus aureus [3] = experiment: Antibacterial activity against methicillin-resistant Staphylococcus aureus NRS119 assessed as inhibition of visible growth by broth microdilution method; format: functional
# Staphylococcus aureus [4] = experiment: Antibacterial activity against methicillin-resistant Staphylococcus aureus NRS108 assessed as inhibition of visible growth by broth microdilution method; format: functional
# Staphylococcus aureus [5] = experiment: Antibacterial activity against vancomycin-intermediate Staphylococcus aureus HIP07256 assessed as inhibition of visible growth by broth microdilution method; format: functional
# Staphylococcus aureus [6] = experiment: Antibacterial activity against methicillin-resistant Staphylococcus aureus USA1000 assessed as inhibition of visible growth by broth microdilution method; format: functional
# Staphylococcus aureus [7] = experiment: Antibacterial activity against methicillin-resistant Staphylococcus aureus USA500 assessed as inhibition of visible growth by broth microdilution method; format: functional
# HeLa = experiment: Cytotoxicity against human HeLa cells assessed as cell viability at 11 ug/ml by MTS assay; format: cell-based
# Staphylococcus aureus [8] = experiment: Antibacterial activity against methicillin-resistant Staphylococcus aureus USA100 assessed as inhibition of visible growth by broth microdilution method; format: functional
# Staphylococcus aureus [9] = experiment: Antibacterial activity against methicillin-resistant Staphylococcus aureus ATCC 43300 assessed as inhibition of visible growth by broth microdilution method; format: functional
# Staphylococcus aureus [10] = experiment: Antibacterial activity against methicillin-resistant Staphylococcus aureus NRS194 assessed as inhibition of visible growth by broth microdilution method; format: functional
# Staphylococcus aureus [11] = experiment: Antibacterial activity against methicillin-resistant Staphylococcus aureus NRS107 assessed as inhibition of visible growth by broth microdilution method; format: functional
# Staphylococcus aureus [12] = experiment: Antibacterial activity against methicillin-resistant Staphylococcus aureus USA800 assessed as inhibition of visible growth by broth microdilution method; format: functional
# Staphylococcus aureus [13] = experiment: Antibacterial activity against methicillin-resistant Staphylococcus aureus USA300 assessed as inhibition of visible growth by broth microdilution method; format: functional
# Staphylococcus aureus [14] = experiment: Antibacterial activity against methicillin-resistant Staphylococcus aureus USA700 assessed as inhibition of visible growth by broth microdilution method; format: functional
# Staphylococcus aureus [15] = experiment: Antibacterial activity against methicillin-resistant Staphylococcus aureus USA200 assessed as inhibition of visible growth by broth microdilution method; format: functional
# Staphylococcus aureus [16] = experiment: Antibacterial activity against vancomycin-resistant Staphylococcus aureus assessed as inhibition of visible growth by broth microdilution method; format: functional
# Staphylococcus aureus [17] = experiment: Antibacterial activity against methicillin-resistant Staphylococcus aureus USA1100 assessed as inhibition of visible growth by broth microdilution method; format: functional
# Staphylococcus aureus [18] = experiment: Antibacterial activity against methicillin-resistant Staphylococcus aureus USA400 assessed as inhibition of visible growth by broth microdilution method; format: functional
# [19] = Aqueous solubility of compound in phosphate buffer assessed as solubility limit after 2 hrs by turbidity analysis; format: physicochemical
solubility kinetic at 2 h [19] [µM],Structure (SMILES),MIC (Staphylococcus aureus [1]) [µg/mL],MIC (Staphylococcus aureus [2]) [µg/mL],MIC (Staphylococcus aureus [3]) [µg/mL],MIC (Staphylococcus aureus [4]) [µg/mL],MIC (Staphylococcus aureus [5]) [µg/mL],MIC (Staphylococcus aureus [6]) [µg/mL],MIC (Staphylococcus aureus [7]) [µg/mL],Activity (HeLa),MIC (Staphylococcus aureus [8]) [µg/mL],MIC (Staphylococcus aureus [9]) [µg/mL],MIC (Staphylococcus aureus [10]) [µg/mL],MIC (Staphylococcus aureus [11]) [µg/mL],MIC (Staphylococcus aureus [12]) [µg/mL],MIC (Staphylococcus aureus [13]) [µg/mL],MIC (Staphylococcus aureus [14]) [µg/mL],MIC (Staphylococcus aureus [15]) [µg/mL],MIC (Staphylococcus aureus [16]) [µg/mL],MIC (Staphylococcus aureus [17]) [µg/mL],MIC (Staphylococcus aureus [18]) [µg/mL]
–,C/C(=N\NC(=N)N)c1sc(-c2ccc(C3=CCCCC3)cc2)nc1C,0.5,0.8,0.6,1.7,0.8,0.8,1,Non-toxic,1,1.2,0.8,0.6,0.8,1.2,1.2,1,1.2,–,–
–,C/C(=N\NC(=N)N)c1sc(-c2ccc(C(C)(C)C)cc2)nc1C,1.6,1.6,1.9,1.9,1.9,–,1.3,Non-toxic,1.3,1.9,2.6,1,1.3,1.3,–,2.6,1.6,1.9,1.9
–,CCCCCCCc1ccc(-c2nc(C)c(/C(C)=N/NC(=N)N)s2)cc1,0.7,0.7,1.5,3,1.5,2.5,3,Non-toxic,3,3,3,1,1.5,2.5,4,1.2,1.5,1.5,1.5
–,CCCCCCCCCc1ccc(-c2nc(C)c(/C(C)=N/NC(=N)N)s2)cc1,1.1,1.1,2.2,4.4,2.9,–,3.7,Non-toxic,–,–,4.4,1.1,1.8,–,1.8,–,–,–,4.4
–,CCCc1ccc(-c2nc(C)c(/C(C)=N/NC(=N)N)s2)cc1,1.9,1.6,1.9,1.2,1.9,1.6,1.9,Non-toxic,1.6,1.2,1.9,1.2,1.9,1.2,1.2,1.9,1.2,1.6,1.2
31.3,COC(=O)[C@H]1[C@H]2C[C@@H]3c4[nH]c5cc(OC)ccc5c4CCN3C[C@H]2C[C@@H](OC(=O)c2cc(OC)c(OC)c(OC)c2)[C@@H]1OC [RESERPINE],–,–,–,–,–,–,–,–,–,–,–,–,–,–,–,–,–,–,–
